Test results from patent US20240341340A1, “EYE DAMAGE PREVENTION COMPOSITION CONTAINING DENDROPANAX MORBIFERA LEV. EXTRACT” (KOREA GINSENG CORP., priority 2021, published 2024).

Columns and labels:
Type in all cases: in vivo, mouse
[1] = system: BALB/c mice, white LED light-induced loss of optic nerve cells; assay: Outer nuclear layer thickness in light-induced macular degeneration animal model; conditions: 6.5 mg/kg/day oral for 7 days
Source text: When drusen accumulates in the macular area due to dry macular degeneration, the macular area is photooxidized and causes damage to surrounding tissues and optic nerve cells, thereby resulting in a decrease of visual acuity, and in severe cases, geographic atrophy occurs, a condition in which optic nerve cells are lost and retinal apoptosis is induced. In order to determine whether a Dendropanax morbifera extract has the effect of improving damage or deformation of photoreceptor cells in an animal model where optic nerve cell damage was caused by excessive irradiation of a light source including blue light and loss of optic nerve cells similar to dry macular degeneration, the changes in the thickness of outer nuclear layer (ONL) of the retina were measured. Specifically, 6-week-old male BALB/c mice (Orient Bio Inc.) were acclimatized for one week and then subjected to dark adaptation in a dark place without light for 14 hours from the evening before white LED exposure containing blue light, and then, their pupils were dilated with 1% tropicamide eye drop the next morning. […] The slide sections were stained with hematoxylin & eosin (H&E) and observed under an optical microscope, and damage or deformation of photoreceptor cells was evaluated by measuring changes in the thickness of the outer nuclear layer of retinal tissue

[2] = system: BALB/c mice, MNU-induced loss of optic nerve cells; assay: Outer nuclear layer thickness in N-methyl-N-nitrosourea (MNU) animal model; conditions: 6.5 and 13 mg/kg/day oral for 7 days
Procedure: In order to confirm the effect of the Dendropanax morbifera extract on improving damage or deformation of photoreceptor cells, N-methyl-N-nitrosourea (MNU) toxic to photoreceptor cells was administered, and the changes in thickness of the outer nuclear layer (ONL) of the retina were measured in an animal model where loss of optic nerve cells similar to dry macular degeneration was induced. Specifically, 6-week-old male BALB/c mice (Orient Bio Inc.) were acclimatized for one week, and N-methyl-N-nitrosourea (MNU) (Sigma, USA) was prepared to a concentration of 1% in a 0.05% acetic acid solution and was administered intraperitoneally to mice at a concentration of 1%, 60 mg/kg per individual, in which only the same amount of 0.05% acetic acid was administered intraperitoneally in the negative control. The test drug was orally administered once daily for 7 days from the same day after administration of N-methyl-N-nitrosourea. […] The slide sections were stained with hematoxylin & eosin (H&E) and observed under an optical microscope, and damage or deformation of photoreceptor cells was evaluated by measuring changes in the thickness of the outer nuclear layer of retinal tissue.

[3] = system: BALB/c mice, white LED light-induced loss of optic nerve cells; assay: Electroretinogram (wave a and wave b) in light-induced macular degeneration animal model; conditions: 6.5 mg/kg/day oral
Source text: An electroretinogram (ERG) is a degree of electric potential of the retinal optic nerve representing an electrical signal generated by a response of the optic nerve to light, and is used as an index to determine the presence/absence of retinal damage or disease. The electroretinogram consists of wave a and wave b, in which the wave a is generated by photoreceptors, and the wave b is generated by depolarization of bipolar cells in the inner nuclear layer of the retina by light stimulation. In order to confirm whether a Dendropanax morbifera extract has the effect of improving the decrease of activity of visual cells in an animal model in which optic nerve cell damage was caused by the irradiation of an excessive light source and loss of optic nerve cells similar to dry macular degeneration was induced, the electroretinogram was measured. […] An appropriate amount of 1% methylcellulose was added to the eyeballs while maintaining body temperature under general anesthesia, and the gold wire loops recording electrode was grounded to the cornea, and the reference electrode was placed on the cheek area, and the ground electrode was grounded to the tail, and then the electroretinogram was measured using Retiport (Roland Consult, Germany). […]

O=C(/C=C/c1ccc(O)c(O)c1)O[C@@H]1C[C@@](O)(C(=O)O)C[C@@H](O)[C@@H]1O [neochlorogenic acid, Neochlorogenic acid]
not statistically significant: increase of thickness of the outer nuclear layer (positive control) [1] | increase of thickness of the outer nuclear layer (positive control) [2] | improvement of retinal nerve conduction (positive control) [3]
